From ChEMBL document CHEMBL4396884, “Structure-Aided Identification and Optimization of Tetrahydro-isoquinolines as Novel PDE4 Inhibitors Leading to Discovery of an Effective Antipsoriasis Agent” (J Med Chem, 2019)
Blank lines part the entries; values can stand above or below the compound they belong to. The source made the active and inactive calls. The calls are words filed in the database; no cut-off is given here.

Experiments:
[1] = molecular target: 3',5'-cyclic-AMP phosphodiesterase 4D (Homo sapiens) (UniProt Q08499); assay: Inhibition of recombinant human PDE4D catalytic domain at 1 uM using [3H]cAMP as substrate measured after 30 mins by scintillation proximity assay relative to control
Sequence of 3',5'-cyclic-AMP phosphodiesterase 4D (Homo sapiens) (Q08499 whole entry, the tested form may be a part): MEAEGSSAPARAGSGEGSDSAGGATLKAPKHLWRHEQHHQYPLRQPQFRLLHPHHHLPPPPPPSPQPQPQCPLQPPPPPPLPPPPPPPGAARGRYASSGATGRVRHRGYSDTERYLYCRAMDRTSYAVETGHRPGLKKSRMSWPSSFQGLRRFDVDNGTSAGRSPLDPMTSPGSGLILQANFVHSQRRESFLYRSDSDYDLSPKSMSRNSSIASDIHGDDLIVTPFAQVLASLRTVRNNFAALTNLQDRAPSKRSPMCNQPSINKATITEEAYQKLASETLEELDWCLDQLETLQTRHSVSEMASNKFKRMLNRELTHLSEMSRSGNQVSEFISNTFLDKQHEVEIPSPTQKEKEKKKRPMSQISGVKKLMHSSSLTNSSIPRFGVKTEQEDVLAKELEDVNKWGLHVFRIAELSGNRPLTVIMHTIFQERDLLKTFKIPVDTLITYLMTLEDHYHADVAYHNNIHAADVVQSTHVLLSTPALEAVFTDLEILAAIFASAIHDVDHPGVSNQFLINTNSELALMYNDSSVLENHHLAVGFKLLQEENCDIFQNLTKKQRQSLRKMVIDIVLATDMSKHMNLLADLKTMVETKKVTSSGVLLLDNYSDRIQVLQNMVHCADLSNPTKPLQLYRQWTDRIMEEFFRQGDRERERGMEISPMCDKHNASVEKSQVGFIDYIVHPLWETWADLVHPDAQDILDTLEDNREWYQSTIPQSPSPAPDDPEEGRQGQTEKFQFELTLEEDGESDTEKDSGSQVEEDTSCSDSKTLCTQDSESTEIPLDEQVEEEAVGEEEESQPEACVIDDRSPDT

[2] = Permeability across apical to basal side in human Caco2 cells assessed as drug recovery measured after 95 mins by LC-MS/MS analysis; type: ADME, cell-based; details: Caco-2, read-out: Drug recovery
[3] = Permeability across basal to apical side in human Caco2 cells assessed as drug recovery measured after 95 mins by LC-MS/MS analysis; type: ADME, cell-based; details: Caco-2, read-out: Drug recovery
[4] = Apparent permeability across apical to basal side in human Caco2 cells measured after 95 mins by LC-MS/MS analysis; type: ADME, cell-based; details: Caco-2
[5] = Apparent permeability across basal to apical side in human Caco2 cells measured after 95 mins by LC-MS/MS analysis; type: ADME, cell-based; details: Caco-2
[6] = AUC (0 to t) in Sprague-Dawley rat at 10 mg/kg, iv by LC-MS/MS analysis; type: ADME, organism-based; details: in vivo
[7] = AUC (0 to infinity) in Sprague-Dawley rat at 10 mg/kg, iv by LC-MS/MS analysis; type: ADME, organism-based; set-up: dose 10 mg/kg, route intravenous, time infinity; details: in vivo
[8] = MRT in Sprague-Dawley rat at 10 mg/kg, iv by LC-MS/MS analysis; type: ADME, organism-based; details: in vivo
[9] = Half life in Sprague-Dawley rat at 10 mg/kg, iv by LC-MS/MS analysis; type: ADME, organism-based; details: in vivo
[10] = Clearance in Sprague-Dawley rat at 10 mg/kg, iv by LC-MS/MS analysis; type: ADME, organism-based; details: in vivo
[11] = Volume of distribution at steady state in Sprague-Dawley rat at 10 mg/kg, iv by LC-MS/MS analysis; type: ADME, organism-based; details: in vivo, read-out: Vdss
[12] = Tmax in Sprague-Dawley rat at 25 mg/kg, po by LC-MS/MS analysis; type: ADME, organism-based; details: in vivo
[13] = Cmax in Sprague-Dawley rat at 25 mg/kg, po by LC-MS/MS analysis; type: ADME, organism-based; set-up: dose 25 mg/kg, route oral; details: in vivo
[14] = AUC (0 to t) in Sprague-Dawley rat at 25 mg/kg, po by LC-MS/MS analysis; type: ADME, organism-based; details: in vivo
[15] = AUC (0 to infinity) in Sprague-Dawley rat at 25 mg/kg, po by LC-MS/MS analysis; type: ADME, organism-based; set-up: dose 25 mg/kg, route oral, time infinity; details: in vivo
[16] = MRT in Sprague-Dawley rat at 25 mg/kg, po by LC-MS/MS analysis; type: ADME, organism-based; details: in vivo
[17] = Half life in Sprague-Dawley rat at 25 mg/kg, po by LC-MS/MS analysis; type: ADME, organism-based; details: in vivo
Mus musculus [18] = assay: Antiinflammatory activity in specific pathogen free BALB/c mouse assessed as inhibition of LPS-induced TNFalpha secretion in serum at 1 mg/kg, po administered as single dose pretreated for 1.5 hrs followed by LPS stimulation and measured after 2 hrs by ELISA; type: functional, organism-based
[19] = Oral bioavailability in Sprague-Dawley rat at 25 mg/kg by LC-MS/MS analysis; type: ADME, organism-based; details: in vivo
Mus musculus [20] = assay: Antiinflammatory activity in specific pathogen free BALB/c mouse assessed as inhibition of LPS-induced IL6 secretion in serum at 1 mg/kg, po administered as single dose pretreated for 1.5 hrs followed by LPS stimulation and measured after 2 hrs by ELISA; type: functional, organism-based
Mus musculus [21] = assay: Antiinflammatory activity in specific pathogen free BALB/c mouse assessed as inhibition of LPS-induced IL12p40 secretion in serum at 1 mg/kg, po administered as single dose pretreated for 1.5 hrs followed by LPS stimulation and measured after 2 hrs by ELISA; type: functional, organism-based
Mus musculus [22] = assay: Antiinflammatory activity in specific pathogen free BALB/c mouse assessed as inhibition of LPS-induced TNFalpha secretion in spleen at 1 mg/kg, po administered as single dose pretreated for 1.5 hrs followed by LPS stimulation and measured after 2 hrs by ELISA; type: functional, organism-based
Mus musculus [23] = assay: Antiinflammatory activity in specific pathogen free BALB/c mouse assessed as inhibition of LPS-induced IL6 secretion in spleen at 1 mg/kg, po administered as single dose pretreated for 1.5 hrs followed by LPS stimulation and measured after 2 hrs by ELISA; type: functional, organism-based
Mus musculus [24] = assay: Antiinflammatory activity in specific pathogen free BALB/c mouse assessed as inhibition of LPS-induced IL12p40 secretion in spleen at 1 mg/kg, po administered as single dose pretreated for 1.5 hrs followed by LPS stimulation and measured after 2 hrs by ELISA; type: functional, organism-based
Mus musculus [25] = assay: Protection against imiquimod-induced skin inflammation in BALB/c mouse psoriasis model assessed as decrease in lesion thickness at 25 mg/kg, po administered once daily for 7 days; type: functional, organism-based
Mus musculus [26] = assay: Protection against imiquimod-induced skin inflammation in BALB/c mouse psoriasis model assessed as decrease in skin scaling at 25 mg/kg, po administered once daily for 7 days; type: functional, organism-based
Mus musculus [27] = assay: Protection against imiquimod-induced skin inflammation in BALB/c mouse psoriasis model assessed as decrease in skin erythema at 25 mg/kg, po administered once daily for 7 days; type: functional, organism-based
Mus musculus [28] = assay: Protection against imiquimod-induced skin inflammation in BALB/c mouse psoriasis model assessed as decrease in cumulative psoriasis score at 25 mg/kg, po administered once daily for 7 days; type: functional, organism-based
Mus musculus [29] = assay: Protection against imiquimod-induced skin inflammation in BALB/c mouse psoriasis model assessed as decrease in lesion thickness at 62.5 mg administered topically as cream formulation once daily for 7 days; type: functional, organism-based
Mus musculus [30] = assay: Protection against imiquimod-induced skin inflammation in BALB/c mouse psoriasis model assessed as decrease in skin scaling at 62.5 mg administered topically as cream formulation once daily for 7 days; type: functional, organism-based
Mus musculus [31] = assay: Protection against imiquimod-induced skin inflammation in BALB/c mouse psoriasis model assessed as decrease in skin erythema at 62.5 mg administered topically as cream formulation once daily for 7 days; type: functional, organism-based
[32] = molecular target: 3',5'-cyclic-AMP phosphodiesterase 4D (Homo sapiens) (UniProt Q08499); assay: Inhibition of recombinant human PDE4D catalytic domain at 10 uM using [3H]cAMP as substrate measured after 30 mins by scintillation proximity assay relative to control
[33] = molecular target: Phosphodiesterase 4 (Homo sapiens) (UniProt P27815+Q08499+Q07343+Q08493); assay: Inhibition of PDE4 in human PBMC assessed as reduction in LPS-stimulated TNFalpha production at 10 uM preincubated for 1 hr followed by LPS stimulation and measured after 18 to 20 hrs by ELISA relative to control; type: protein assay

inhibition [1]: 16.4%
Compound: COc1cc2c(cc1OC)C(CCc1c[nH]c3ccccc13)N(C(=O)C1CCOCC1)CC2 (racemic)

inhibition [1]: 30.7%
Compound: COc1cc2c(cc1OC)C(CCc1c[nH]c3ccccc13)N(C(=O)c1ccncc1)CC2 (racemic)

inhibition [1]: 39.1%
Compound: COC(=O)CN1CCc2cc(OC)c(OC)cc2C1CCc1c[nH]c2ccccc12 (racemic)

inhibition [1]: 19.2% | inhibition [33]: 25.7%
Compound: COCCN1CCc2cc(OC)c(OC)cc2C1CCc1c[nH]c2ccccc12 (racemic)

inhibition [1]: 19.5%
Compound: COc1cc2c(cc1OC)C(CCc1c[nH]c3ccccc13)N(CC(F)(F)F)CC2 (racemic)

Continued, compound first:

Compound: COc1cc2c(cc1OC)[C@H](CCc1c[nH]c3cc(C)ccc13)N(C=O)CC2
recovery at 95 min [2]: 92.3% | recovery at 95 min [3]: 96.8% | Papp A→B at 95 min [4]: 18.4 ×10⁻⁶ cm/s | Papp B→A at 95 min [5]: 19.9 ×10⁻⁶ cm/s | AUC(0-t) [6]: 6210 ng·h/mL | AUC(0-inf) [7]: 6280 ng·h/mL | MRT [8]: 55.2 min | half-life [9]: 36 min | clearance [10]: 28.3 mL/min/kg | Vd [11]: 1.56 L/kg | Tmax [12]: 79.8 min | Cmax [13]: 2450 ng/mL | AUC(0-t) [14]: 8390 ng·h/mL | AUC(0-inf) [15]: 8460 ng·h/mL | MRT [16]: 150 min | half-life [17]: 56.4 min | Activity (Mus musculus [18]): Active | bioavailability [19]: 68.3% | Activity (Mus musculus [20]): Active | Activity (Mus musculus [21]): Active | Activity (Mus musculus [22]): Active | Activity (Mus musculus [23]): Active | Activity (Mus musculus [24]): Active | Activity (Mus musculus [25]): Active | Activity (Mus musculus [26]): Active | Activity (Mus musculus [27]): Active | Activity (Mus musculus [28]): Active | Activity (Mus musculus [29]): Active | Activity (Mus musculus [30]): Active | Activity (Mus musculus [31]): Active

Compound: COc1cc2c(cc1OC)C(CCc1c[nH]c3ccccc13)N(CC1CCOCC1)CC2 (racemic)
inhibition [32]: 34.6% | inhibition [33]: 36.7%

Compound: CCOc1cc([C@@H](CS(C)(=O)=O)N2C(=O)c3cccc(NC(C)=O)c3C2=O)ccc1OC
recovery at 95 min [2]: 96.7% | recovery at 95 min [3]: 92.1% | Papp A→B at 95 min [4]: 14.9 ×10⁻⁶ cm/s | Papp B→A at 95 min [5]: 29 ×10⁻⁶ cm/s | Activity (Mus musculus [25]): Active | Activity (Mus musculus [26]): Active | Activity (Mus musculus [27]): Active | Activity (Mus musculus [28]): Active

Compound: COc1cc2c(cc1OC1CCCC1)[C@H](CCc1c[nH]c3cc(C)ccc13)N(C=O)CC2
inhibition [1]: 24%
